Experimental data reported in patent US5075337A, “Alpha-deuterated 2-alkylaminoacetamide derivatives having reduced toxicity for treatment of CNS disorders” (G. D. Searle & Co., priority 1989, dated 1991).

What was measured:
[1] = target: T1, monoamine oxidase enzyme (MAO-B) (Rattus norvegicus, UniProt P19643); assay: MAO-B enzyme inhibition assay (rat brain mitochondria, preincubation with inhibitor); type: biochemical, rat (Sprague Dawley)
T1 construct: 14C-beta-phenylethylamine substrate
T1 sequence (P19643 1-520): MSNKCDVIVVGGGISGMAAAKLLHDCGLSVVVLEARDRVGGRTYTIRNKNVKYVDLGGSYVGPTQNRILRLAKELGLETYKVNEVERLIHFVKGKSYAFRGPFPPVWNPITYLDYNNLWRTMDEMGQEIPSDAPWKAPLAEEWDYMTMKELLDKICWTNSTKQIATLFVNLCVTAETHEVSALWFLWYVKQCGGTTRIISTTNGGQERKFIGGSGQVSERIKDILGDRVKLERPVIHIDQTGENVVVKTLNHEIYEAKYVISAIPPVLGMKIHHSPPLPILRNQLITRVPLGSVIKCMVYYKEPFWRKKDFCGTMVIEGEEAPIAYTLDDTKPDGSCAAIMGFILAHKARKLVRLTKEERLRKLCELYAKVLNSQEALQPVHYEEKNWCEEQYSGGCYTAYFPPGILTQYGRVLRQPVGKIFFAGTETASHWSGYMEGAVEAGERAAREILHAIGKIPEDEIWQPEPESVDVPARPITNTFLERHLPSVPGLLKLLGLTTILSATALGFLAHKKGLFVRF
Description: Rat brain mitochondria were purified by a modification of the method of Dodd (Dodd Sprague Dawley rats of about 200 gr were decapitated and the brain was rapidly removed from the skull. Brains were homogenized with a glass-Teflon homogenizer in ice cold 0.32M sucrose (1/10, w/v). The homogenate was centrifuged at 2,400 g for 10 min at 4° C. The supernatant was centrifuged at 3,000 g for 10 min at 4° C. This last supernatant (8 ml) was poured into at tube containing 4 ml of 1.2M sucrose. The mitochondrial fraction is obtained after a centrifugation at 115,000 g for 30 min at 4° C. The mitochondrial pellet was suspended in 4 ml of 50 mM Na phosphate buffer and stored as aliquots at -30° C. […] Aliquots of the mitochondrial fraction were preincubated with ^2 H-milacemide or milacemide (200 μM in 50 mM Na phosphate buffer pH8) for different time periods, the samples were diluted with the incubation buffer, centrifuged and the pelleis were then used for the MAO assay. The enzymatic assay was performed in Eppendorf micro tubes (1.5 ml). The 100 μl total incubation volume contained 40 μl of 7 mM ^14 C-β-phenylethylamine, 20 μl of 50 mM Na phosphate buffer pH 8 and 40 μl of the pre-incubated mitochondrial fraction (0.2 mg protein/ml). The closed micro tubes were immediately shaken using a vortex and incubated during 4 min at 37° C. The reaclion was stopped by adding 20 μl of 1.5 N Hcl into the tube placed in an ice bath. The deaminated products were extracted with 600 μl of a toluene-ethyl acetate mixture (water saturated) and strongly mixed during 30 sec. The two layers were separated by centrifugation (10.000 g) for 10 min. Then, 400μL of the organic layer were added to 4 ml of lumagel in a scintillation counting vial. Blank values are obtained by incubating the mitochondrial fraction with Hcl 1.5M.

[2] = system: convulsions induced by 3-mercaptopropionic acid (3-MPA); assay: Prevention of chemically induced convulsions (3-MPA); type: in vivo, mouse (male Swiss albino); details: 100 mg/kg oral; 3-MPA 120 mg/kg subcutaneously; two groups of 5 mice
Description: (§1) The anticonvulsive effect of a compound of the invention was examined for clonic, tonic convulsions and death induced by different convulsant agents, namely, 3-mercaptopropionic acid (3-MPA 120 mg/kg subcutaneously) and bicuculline (BIC, 0.6 mg/kg intravenously), (W. van Dorsser, D. Barris, A. Cordi and J. Roba; Arch. Int. Pharmacodyn., 266: 239-249 (1983)). The compounds of the invention were administered orally at dosage of either 100 mg/kg (3-MPA) or 30 mg/kg (BIc) in a volume of 10 ml/kg, each to 5 mice, 30 minutes or 2 hours before convulsions were induced. Test mice used were male Swiss albino mice weighing 22-33 g, CDl, charles River, France, housed in group of 10 on a 12 hours light-dark cycle for at least 1 week before use, and fasted overnight. The number of mice protected against tonic convulsions and the number of dead mice were noted. The results are given as a score which represents the total number of mice protected by a dose of 100 mg/kg for two groups of 5 animals (3-MPA) or the percentage of mice protected by a dose of 30 mg/kg in 4 groups of 5 animals (BIC).

[3] = system: convulsions induced by bicuculline (BIC); assay: Prevention of chemically induced convulsions (bicuculline); type: in vivo, mouse (male Swiss albino); details: 30 mg/kg oral; bicuculline 0.6 mg/kg intravenously; 4 groups of 5 mice
Description: as §1

[4] = Comparative pharmacokinetic study, 1:1 mixture of milacemide and ^2 H-milacemide; type: in vivo, cynomolgus monkey (Macaca fascicularis); details: for ^2 H-milacemide/milacemide ratio, plasma AUC / ^2 H-milacemide/milacemide ratio, urine 24 hours excretion: 1:1 mixture
Description: A comparative pharmacokinetic study was conducted in the cynomolgus monkey (Macaca fascicularis) with a 1:1 mixture of milacemide and ^2 H-milacemide administered to 4 males and 4 females used in this study. One animal of each sex received the mixture either by the i.v. route at the dose of 30 mg/kg, or by the intragastric route at the dose of 30 mg/kg or 100 mg/kg, or 300 mg/kg. Plasma samples were drawn from the males and 0-24 hours urine samples were collected by the females. Preliminary determinations of milacemide in the urine samples were made by HPLC. […] The aqueous solution was made alkaline by the addition of 0.3 mL of 0 5M borate buffer at pH 9.3. Derivatization occurs by addition of 0.3 mL of a solution of fluorescamine in acetone (75 g/L), then 10 to 20 pL aliquots were injected on a 5 Bondapak C18 column eluted by a mixture of tetrahydrofuran, water and 0.5M borate buffer (2/6/2) adjusted to pH 8 by the addition of hydrochloric acid. […] Analysis of the ratio of unchanged deutero milacemide versus milacemide, was performed by GC-MS Milacemide and ^2 H-milacemide extracted from plasma aliquots were transformed into their respective N-trifluoroacetylated nitrile by reaction with trifluoroacetic anhydride. After separation from the impurities, on a 3% OV 17 column, the mass spectra were obtained in the chemical ionization mode by ammonia on a Riber 10-10 B mass spectrometer. […] Quantification was performed using selected ion monitoring (SIM) on the base peaks mentioned.

[5] = in words; literature; cited from earlier work
[6] = system: MAO-B enzyme; details: in words; literature; cited from earlier work
[7] = 200 μM, preincubation, pH 8, rat brain mitochondria, 50% inhibition
[8] = compared with milacemide, in words

| SMILES | time to reach the same level of inhibition (50%) of MAO-B [1, 7] | fold more time needed to reach the same level (50%) of MAO-B inhibition, ^2 H-milacemide vs milacemide ([1]; ^2 H-milacemide relative to milacemide) [fold] | 3-MPA (% Protected) [2] [%] | BIC (% Protected) [3] [%] | ^2 H-milacemide/milacemide ratio, plasma AUC ([4]; 30 mg/kg i.g.) | ^2 H-milacemide/milacemide ratio, urine 24 hours excretion ([4]; 30 mg/kg i.g.) | ^2 H-milacemide/milacemide ratio, plasma AUC ([4]; 30 mg/kg i.v.) | ^2 H-milacemide/milacemide ratio, urine 24 hours excretion ([4]; 30 mg/kg i.v.) | ^2 H-milacemide/milacemide ratio, plasma AUC ([4]; 100 mg/kg i.g.) | ^2 H-milacemide/milacemide ratio, urine 24 hours excretion ([4]; 100 mg/kg i.g.) | ^2 H-milacemide/milacemide ratio, plasma AUC ([4]; 300 mg/kg i.g.) | ^2 H-milacemide/milacemide ratio, urine 24 hours excretion ([4]; 300 mg/kg i.g.) | first pass effect [4, 8] | half-life [4, 8] | metabolic clearance [4, 8] | time to inhibit MAO-B activity by 50% [1, 7] [min] | brain bioavailability [5] | metabolism in the peripheral system by the MAO-B enzyme [6] |
| --- | --- | --- | --- | --- | --- | --- | --- | --- | --- | --- | --- | --- | --- | --- | --- | --- | --- | --- |
| [2H]C([2H])(CCCC)NCC(N)=O [^2 H-milacemide, 2-(1,1-dideuteropentylamino)acetamide] | at least 3 hours | 6 | 10 | 45 | 14.6 | 7.4 | 2.6 | 3.1 | 9.2 | 5.2 | 7.1 | 3.7 | reduced first pass effect | prolonged | decreased metabolic clearance |  |  |  |
| CCCCCNCC(N)=O [milacemide, 2-n-pentylaminoacetamide, reference compound] |  |  | 20 | 65 |  |  |  |  |  |  |  |  |  |  |  | 30 | limited brain bioavailability | metabolized in the peripheral system by the MAO-B enzyme |
| NNCCc1ccccc1 [phenelzine] |  |  |  |  |  |  |  |  |  |  |  |  |  |  |  |  | limiting its brain bioavailability | metabolized in the peripheral system by the MAO-B enzyme |
